Results from patent publication US8999930B2, “Soluble hydrophobic core carrier compositions for delivery of therapeutic agents, methods of making and using the same” (PharmaIN Corporation, priority 2008, dated 2015).
Read-outs that look alike come from different tables or passages of the source. Where a SMILES comes first, the peptide text is derived from it. Bridges are numbered along the chain shown (N, C = ends).

Assay: Binding of load molecules to 20PLPEG555C18 carrier (100 kDa filtration, free load by HPLC, Scatchard plot)
Settings: for binding affinity to carrier, in words: strong = Kd less than 100 uM, carrier 20 kDa polylysine, 55% 5 kDa MPEGsuccinate, remainder stearic acid
[1] = Kd to the 20PLPRG555C18, Table 4, read-out: Dissociation Constant (Kd)

Procedure: Load molecules of various concentrations were added to the tubes so that the corresponding weight of load molecules will be between 2 to 30% of the weight of the carrier. To each tube, 25 ul of 10× Phosphate buffered saline was added and the total volume of the solution was made up to 250 ul. The solutions were incubated for 2 hours, followed by filtration through a 100 kDa molecular weight cut-off filter made up of regenerated cellulose (Microcon Ultracell YM-100; Millipore, Bedford, Mass.). The free unbound load molecules in the filtrate were analyzed by reverse phase HPLC using the conditions described above to generate Table 3. The total amount of load molecule loaded or the control is represented by the filtrate of the solution without the carrier. The amount of load molecules bound to the carrier is represented by the difference in the amount of load molecules between the filtrate without the carrier and the filtrate with the carrier. Prior to this analysis, the background filter binding was determined and accounted for whenever significant filter binding was found.

Kd [1] | Kd (Ten mg/ml (30 uM) of Carrier loaded with various concentration of doxorubicin, read-out: apparent Kd (Scatchard plot)) | binding affinity to carrier, in words | Kd (Ten mg/ml (30 uM) of Carrier, read-out: Kd (Scatchard plot)) | Kd (33 mg/ml (10 uM) of Carrier, read-out: Kd (Scatchard plot)) | binding affinity to carrier, in words (listed as VIP) | Compound
> 100 µM | 315 µM | did not bind with strong affinity |  |  |  | COc1cccc2c1C(=O)c1c(O)c3c(c(O)c1C2=O)C[C@@](O)(C(=O)CO)C[C@@H]3O[C@H]1C[C@H](N)[C@H](O)[C@H](C)O1 [Doxorubicin, reference compound]
< 0.5 µM |  |  |  |  |  | Glucagon Like Peptide 2: Glucagon Like Peptide 2 (GLP-2; 3 kDa), load molecule
> 100 µM |  | does not bind hGH with strong affinity |  |  |  | Human Growth Hormone: recombinant human growth hormone (26 kDa), load molecule
< 900 µM |  | binds IAPP with strong affinity | 0.9 µM |  |  | Islet Amyloid Polypeptide: Islet Amyloid Polypeptide (IAPP or Amylin; 3.6 kDa), load molecule (KCNTATCATQRLANFLVHSSNNFGAILSSTNVGSNTY; Islet amyloid polypeptide; UniProt P10997 34-70, looked up)
< 0.8 µM |  | binds Leptin with strong affinity |  | 0.7 µM |  | Leptin: Leptin (16 kDa), load molecule
 |  | high affinity |  |  | binds VIP with strong affinity | Vasoactive Intestinal Peptide: Vasoactive Intestinal Peptide (VIP), load molecule

Compound | Kd [1] | Kd (Ten mg/ml (30 uM) of Carrier loaded with various concentration of doxorubicin, read-out: apparent Kd (Scatchard plot)) | binding affinity to carrier, in words | Kd (Ten mg/ml (30 uM) of Carrier, read-out: Kd (Scatchard plot)) | Kd (33 mg/ml (10 uM) of Carrier, read-out: Kd (Scatchard plot)) | binding affinity to carrier, in words (listed as VIP)
NCCCC[C@H](NC(=O)[C@@H]1CCCN1C(=O)[C@@H]1CSSC[C@H](NC(=O)CNC(=O)CNC(=O)CN)C(=O)N[C@@H](Cc2ccc(O)cc2)C(=O)N[C@@H](Cc2ccccc2)C(=O)N[C@@H](CCC(N)=O)C(=O)N[C@@H](CC(N)=O)C(=O)N1)C(=O)NCC(N)=O [Terlipressin, reference compound] (H-GGGCYFQNCPKG-NH2; disulfide 4-9) | > 100 µM |  | does not bind Terlipressin with strong affinity |  |  | 
